In patent US8686021B2, “Use of a benzoyl derivative of 3-aminocarbazole for the treatment of a disorder associated with the production of prostaglandin E2 (PGE2)” (Aziende Chimiche Riunite Angelini Francesco A.C.R.A.F. …, priority 2005, dated 2014):

Experiments:
production of PGI2 = experiment: Test on human primary endothelial cells (HUVEC): secretion of PGI2; format: cell-based
Protocol: This test is used to evaluate the ability of the compounds in Table 2 to inhibit the production of PGI2.
The absence of inhibitory activity on these prostanoids may ensure that the vasoprotective action of PGI2 is maintained and provides useful pharmacological information about the absence of adverse effects on the endothelium.
Compound 1 was used in the test.
The action of the compound under test was evaluated in HUVEC cells under basal and stimulation conditions (J. Immunol. 1989 Jun. 1; 142(11):3993-9).
The results are shown in Table 6 and are expressed as percentage inhibition in comparison with control enzyme activity.
Indomethacin was used as the reference compound.

production of PGE2 = experiment: In-vitro activity test: inhibition of PGE2 production in IL-1β-stimulated A549 cells; format: cell-based, human; settings: 18 hours
Source text: (§1) This test is used to evaluate capability to inhibit the production of PGE2 and selectivity with respect to the production of PGF2, for each of the compounds under examination.
(§2) Cell line A549, human lung adenocarcinoma, which is particularly sensitive to stimulation with proinflammatory cytokines such as IL-1β, and, in response to that stimulation, particularly active in the production and release of two prostanoids: PGE2 and PGF2α (Thoren S., Jakobsson P. J. “Coordinate up- and down-regulation of glutathione-dependent prostaglandin E synthase and cyclooxygenase-2 in A549 cells. Inhibition by NS-398 and leukotriene C4”, Eur. J. Biochem. 2000, 267(21):6428-6434)) was used.
(§3) The cells were stimulated with IL-1β (1 ng/ml) and at the same time treated with the compounds under test for 18 hours in an appropriate culture medium (DMEM—Dulbecco's Modified Eagles Medium) enriched with 5% bovine foetal serum and L-glutamine (4 mM final) in an incubator at 37° C. and with a CO2 concentration of 5%.
(§4) After incubation the quantities of PGE2 and PGF2α produced and released into the supernatant were determined using an EIA kit (manufactured and marketed by Cayman Chemicals, Ann Arbor, Mich., USA).
(§5) The results, shown in Table 3, are expressed as percentage inhibition of the production of PGE2 and PGF2α at a concentration of […].

[1] = test system: pained behaviour induced by acetic acid in mice; experiment: In-vivo activity test: acetic acid-induced stretching (nociceptive test of inflammatory origin) in mice; settings: female CD-1 mice; 30 mg/kg orally in methyl cellulose (MTC), 1 hour before acetic acid i.p.; mean±SD; vehicle MTC 58 ± 5
Protocol: This test makes it possible to evaluate the activity of the compounds according to this invention in a nociceptive test of inflammatory origin. Compound 1 was used for this purpose in an experimental model which provokes pained behaviour induced by acetic acid in mice (Stock, J. L. et al., J. Clin. Inv. 2001, 107:325-331). Female CD-1 mice weighing 25-30 g were used for the test.
The animals were treated orally with compound 1 (30 mg/kg) suspended in methyl cellulose (MTC). The control animals were treated with the vehicle (MTC) alone, orally.
One hour after treatment acetic acid (0.7% v/v in physiological solution, 16 μl/g of body weight) was injected into the animals intraperitoneally to induce inflammatory pain and check the effects of the treatment on the nociceptive response.
The number of stretches, which represents the evaluation parameter for the nociceptive response, was measured immediately after the administration of acetic acid and for the next 20 minutes.

production of PGF2α = experiment: In-vitro activity test: inhibition of PGF2α production in IL-1β-stimulated A549 cells; format: cell-based, human; settings: 18 hours
Source text: as §1, §2, §3, §4, §5

[2] = 10 μM, A549 cells stimulated with IL-1β (1 ng/ml), EIA kit
[3] = A549 cells stimulated with IL-1β
[4] = Homo sapiens, 10 μM, A549 cells stimulated with IL-1β (1 ng/ml), EIA kit

| Compound | % inhibition at 10 μM PGE2 (production of PGE2; [2]) | pIC50 PGE2 (production of PGE2; [3]) | % inhibition at 10 μM PGF2α (production of PGF2α; [2]) | pIC50 PGF2α (production of PGF2α; [3]) | further results |
| --- | --- | --- | --- | --- | --- |
| CCn1c2ccccc2c2cc(NC(=O)c3ccccc3Cl)ccc21 [Compound 1] | 82% | 5.7 | 16% | 4.1 | % inhibition, test for the secretion of PGI2, Basal (HUVEC) (production of PGI2; 10 μM, basal conditions): 0%; % inhibition, test for the secretion of PGI2, Stimulated (HUVEC) (production of PGI2; 10 μM, stimulation conditions): 0%; No. stretches in 20 min [1]: 40 ± 5 |
| CCn1c2ccccc2c2cc(NC(=O)c3ccccc3C)ccc21 [Compound 2] | 83% | 5.3 | 44% | 4.3 |  |
| COc1ccc2c(c1)c(CC(=O)O)c(C)n2C(=O)c1ccc(Cl)cc1 [Indomethacin, reference compound] |  |  |  |  | inhibition at 10 µM (production of PGI2; Homo sapiens, stimulation conditions, read-out: % inhibition, test for the secretion of PGI2, Stimulated (HUVEC)): 100%; inhibition at 10 µM (production of PGE2; [4]): 100%; IC50 (production of PGE2; Homo sapiens, A549 cells stimulated with IL-1β, read-out: pIC50 PGE2 (converted)): 5.01 nM; inhibition at 10 µM (production of PGF2α; [4]): 100%; IC50 (production of PGF2α; Homo sapiens, A549 cells stimulated with IL-1β, read-out: pIC50 PGF2α (converted)): 2.51 nM |
| CCn1c2ccccc2c2cc(NC(=O)c3ccccc3I)ccc21 [Compound 4] | 84% | 5.4 | 0% | <4 |  |
| CCn1c2ccccc2c2cc(NC(=O)c3ccccc3)ccc21 [B, reference compound] | 46% |  | 40% |  |  |
| CCn1c2ccccc2c2cc(NC(=O)c3c(Cl)cccc3Cl)ccc21 [Compound 6] | 89% |  | 51% |  |  |
| CCn1c2ccccc2c2cc(NC(=O)c3cc(Cl)ccc3Cl)ccc21 [Compound 8] | 93% |  | 37% |  |  |
| CCn1c2ccccc2c2cc(NC(=O)c3ccccc3[N+](=O)[O-])ccc21 [Compound 5] | 27% |  | 0% |  |  |
| CCn1c2ccccc2c2cc(NC(=O)c3ccc(C)cc3)ccc21 [C, reference compound] | 43% |  | 49% |  |  |
| CCn1c2ccccc2c2cc(NC(=O)c3ccccc3OC)ccc21 [A, reference compound] | 98% |  | 95% |  |  |
| CCn1c2ccccc2c2cc(NC(=O)c3ccccc3Br)ccc21 [Compound 3] | 81% | 5.5 | 0% | <4 |  |
| CCn1c2ccccc2c2cc(NC(=O)c3cc([N+](=O)[O-])ccc3Cl)ccc21 [Compound 7] | 70% |  | 0% |  |  |
